Experimental data: patent publication US20030186943A1, “Substituted gamma-phenyl-delta-lactams and uses related thereto” (Inflazyme Pharmaceuticals Ltd., priority 1998, published 2003)
Like-named read-outs stand apart in the source and are kept apart here.

Assays:
PDE 1 (bovine heart) = PDE 1 (bovine heart) (Bos taurus, UniProt P14100); assay: PDE isozyme specificity: PDE 1; assay type: biochemical
Source text: (§1) Compound 12 was screened for activity against 5 of the major classes of mammalian cyclic nucleotide phosphodiesterase (termed PDE 1 through 5). PDE's 1 through 4 utilize cAMP as substrate while PDE 5 uses cGMP. The broad specificity PDE inhibitor 3-isobutyl-1-methylxanthine (IBMX; Sigma; Catalogue No. 17018)) was used as a positive control in all assays. PDE's for the various assays were partially purified from the following cells/tissues; PDE 1 (bovine heart), PDE 2 (human platelets), PDE 3 (human platelets), PDE 4 (human promonocytic U937 cells) and PDE 5 (human platelets).
(§2) Test compounds (at 100 μM) were screened for activity against PDE 1,2 and 5, using standard biochemical methods performed at MDS Panlabs (Bothell, Wash., USA). The broad specificity PDE inhibitor 3-isobutyl-1-methylxanthine (IBMX) was used as a positive control in all assays. PDE's for the various assays were partially purified from the following cells/tissues; PDE 1 (bovine heart), PDE 2 (human platelets) and PDE 5 (human platelets). For purposes of comparison, the effects on PDE3 (human platelets) and PDE4 (human U937 monocytic cell line) described above are presented again in Table 12.

PDE 2 (human platelets) = molecular target: T1, PDE 2 (human platelets) (Homo sapiens, UniProt O00408); assay: PDE isozyme specificity: PDE 2; assay type: biochemical; conditions: for inhibition at 100 µM: PDE2, X marks this range
T1 construct: PDE's for the various assays were partially purified from the following cells/tissues; tissue MDS Panlabs (assay service); host or cells: human platelets
T1 sequence (O00408 whole entry): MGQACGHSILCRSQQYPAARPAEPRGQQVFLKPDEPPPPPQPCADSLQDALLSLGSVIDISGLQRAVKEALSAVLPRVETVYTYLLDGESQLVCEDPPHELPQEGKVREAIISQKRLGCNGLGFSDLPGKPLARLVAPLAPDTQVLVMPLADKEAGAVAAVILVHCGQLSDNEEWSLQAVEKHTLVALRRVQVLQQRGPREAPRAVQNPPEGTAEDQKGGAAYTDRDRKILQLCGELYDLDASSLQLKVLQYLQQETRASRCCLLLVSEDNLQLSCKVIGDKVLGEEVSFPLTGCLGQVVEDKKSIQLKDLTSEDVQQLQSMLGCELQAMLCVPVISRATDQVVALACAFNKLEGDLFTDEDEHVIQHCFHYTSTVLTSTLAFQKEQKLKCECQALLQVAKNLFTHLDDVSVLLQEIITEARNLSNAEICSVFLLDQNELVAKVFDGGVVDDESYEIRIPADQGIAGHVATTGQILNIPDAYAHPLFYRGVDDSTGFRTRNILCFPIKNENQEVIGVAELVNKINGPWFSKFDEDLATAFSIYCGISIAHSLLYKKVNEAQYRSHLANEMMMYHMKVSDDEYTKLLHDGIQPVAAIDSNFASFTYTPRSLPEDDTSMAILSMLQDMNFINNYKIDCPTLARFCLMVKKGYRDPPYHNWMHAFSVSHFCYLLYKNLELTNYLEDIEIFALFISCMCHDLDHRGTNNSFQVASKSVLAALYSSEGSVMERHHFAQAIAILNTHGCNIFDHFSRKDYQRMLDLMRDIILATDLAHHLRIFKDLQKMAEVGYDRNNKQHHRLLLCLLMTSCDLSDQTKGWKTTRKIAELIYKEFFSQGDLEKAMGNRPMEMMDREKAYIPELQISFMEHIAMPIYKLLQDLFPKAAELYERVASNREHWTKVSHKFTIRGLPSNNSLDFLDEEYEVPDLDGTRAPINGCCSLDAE
Source text: as §1, §2

PDE 5 (human platelets) = molecular target: T2, PDE 5 (human platelets) (Homo sapiens, UniProt O76074); assay: PDE isozyme specificity: PDE 5; assay type: biochemical; conditions: for inhibition at 100 µM: read-out: % inhibition by 100 μM test compound 1-25, PDE5, X marks this range
T2 construct: PDE's for the various assays were partially purified from the following cells/tissues; tissue MDS Panlabs (assay service); host or cells: human platelets
Source text: as §1, §2

[1] = test system: primary human neutrophils; assay: fMLP-induced human neutrophil chemotaxis; assay type: cell-based; conditions: for IC50: fMLP-induced chemotaxis, X marks this range, read-out: IC50 RANGE (μM) 10-100
Description: Chemotaxis buffer containing the chemoattractant fMLP (10 μM) was added to each well of a chemotaxis plate and a filter was inserted ensuring contact between the filter and the chemotaxis buffer in the well. A submaximal concentration of chemoattractant was used which had been determined in previous experiments. […] Freshly isolated neutrophils (1×10^6) were incubated with vehicle (0.125% DMSO)±test compound for 1 hr at 37° C. Treatment and control cell suspensions were then gently resuspended and 20 μL of cells was added to the top side of the filter on each well. The plate was incubated for 1.5 hours at 37° C. under 5% CO2. Cells were then removed from the top side of the filter by aspiration and the entire plate was centrifuged. The filter was removed and known concentrations of cells were added to unused wells to prepare a standard curve. XTT (Sigma; Catalogue No. X 4251)/PMS (Sigma; Catalogue No. P 7626) solution prepared in buffer was added to each well and the cells were further incubated 1-2 hours and measured for absorbance at 450 nm. Absorbance values were converted to cell numbers using the standard curve. IC50 values are averages from at least three separate experiments with triplicate determinations.

[2] = test system: Resiniferitoxin-induced mouse ear edema; assay: Resiniferitoxin-induced mouse ear edema; assay type: in vivo; conditions: Mus musculus, CD1 mice; for inhibition in vivo at 100 mg/kg: ip, intraperitoneal administration; for inhibition in vivo at 50 µg/ear: topical administration, 50 μg/ear, RTX 0.1 μg/ear; for inhibition in vivo at 10 mg/kg: oral administration
Source text: One of the primary characteristics of inflammation is an increase in vascular dilation and permeability leading to the extravasation of, and collection of fluids in, the interstitium, resulting in redness and swelling. Rheumatoid arthritis in particular is characterized by pronounced edema of affected joints resulting in significant pain and stiffness. The mouse ear inflammation model is a standard in vivo assay for inflammation that is based on an increase in ear weight which is attributable to edema induced by inflammatory mediators. RTX (resiniferitoxin; Sigma; Catalogue No. R 8756)) is a diterpene isolated from the plant Euphorbia poisonii and is an ultrapotent analog of capsaicin. RTX acts by selectively stimulating nociceptive and thermal-sensitive nerve ending in tissue, eliciting neurogenic edema. Compounds of the present invention, whether administered topically, intraperitoneally or orally, inhibited development of edema induced by topical application of RTX.
Mice (CD1, Charles River Laboratories) were separated into groups (n—5−8) and tagged. Control mice had RTX (0.1 μg/ear) applied topically to the inner and outer sides of the left ear and vehicle applied to the right ear as a control. For topical administration, experimental/treatment mice received RTX+test compound solution (50 μg/ear) on the left ear and acetone on the right ear. For intraperitoneal (i.p.) administration, 100 mg/kg test compound dissolved in 100 μL PEG 200:saline (1:1) was injected followed by a 30 minute waiting period then the standard 30 minute RTX edema induction. For oral (p.o.) administration, 10 mg/kg test compound in 100 μL PEG-200 was given to animals, then edema induced using 0.1 μg/ear RTX after a 1.5 hour waiting period. After edema induction, mice were sacrificed, and a standard disc of ear tissue was removed. Each disk of tissue was immediately weighed to the nearest 1/10th of a mg. Data were analyzed by taking the difference of each left ear from the right ear, calculating the mean+/−SEM. Statistical significance was tested by 2-sample t-test on the left/right ear weight differences of the control group vs. the experimental group.

naive CD4+ T-cells = assay: Naive CD4+ T-cell proliferation (AND-TCR transgenic); assay type: cell-based, mouse
Description: AND-TCR transgenic mice (Kaye J. et al., Nature 341:746-749, 1989) were used to provide a source of naive-antigen specific CD4+T cells. The AND-T cell antigen receptor recognizes a peptide derived from pigeon cytochrome C (pcc) in the context of the I-E^k class II MHC molecule.
To examine the role of a test compound in naive CD4 T cell activation and proliferation, 1×10^5 AND-lymph node T cells were cultured with 1×10^6 irradiated B10.BR spleen cells in the presence of varying concentrations of pcc peptide (0-10 μM) in 96 well plates. Proliferation was assessed by ^3H thymidine incorporation. All assay conditions were conducted in triplicate. Cell surface activation phenotype of T cells was assessed by flow cytometric analysis.

[3] = read-out: % inhibition by 100 μM test compound 25-50
[4] = read-out: % inhibition by 100 μM test compound 50-75, PDE1, X marks this range

Chain of PDE 1 (bovine heart) (P14100 35-530): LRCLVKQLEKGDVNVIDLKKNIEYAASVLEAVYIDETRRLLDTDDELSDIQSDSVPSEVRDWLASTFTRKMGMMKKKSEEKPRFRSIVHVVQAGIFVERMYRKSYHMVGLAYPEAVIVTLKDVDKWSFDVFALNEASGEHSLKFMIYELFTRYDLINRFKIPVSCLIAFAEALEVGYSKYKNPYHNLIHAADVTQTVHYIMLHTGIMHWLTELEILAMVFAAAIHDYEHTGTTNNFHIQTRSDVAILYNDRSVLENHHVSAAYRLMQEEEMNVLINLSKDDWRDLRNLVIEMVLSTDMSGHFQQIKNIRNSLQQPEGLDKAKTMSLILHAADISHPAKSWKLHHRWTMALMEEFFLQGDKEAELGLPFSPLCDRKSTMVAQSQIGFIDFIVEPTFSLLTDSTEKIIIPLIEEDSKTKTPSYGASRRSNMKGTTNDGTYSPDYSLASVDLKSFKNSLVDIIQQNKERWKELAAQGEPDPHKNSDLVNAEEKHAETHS

## COc1ccc([C@@H]2CCC(=O)OC2)cc1OC1CCCC1 [Compound 41]
PDE 1 (bovine heart); read-out: % inhibition by 100 μM test compound 1-25, PDE1, X marks this range
  inhibition at 100 µM: 1 to 25%
PDE 2 (human platelets); [3]
  inhibition at 100 µM: 25 to 50%
PDE 5 (human platelets)
  inhibition at 100 µM: 1 to 25%

## COc1cc(C[C@@H]2C[C@@H](c3ccc(OC)c(OC)c3)COC2=O)ccc1O [Compound 30]
[1]
  IC50: 10 to 100 µM
[2]
  inhibition in vivo at 100 mg/kg: 28%
  inhibition in vivo at 50 µg/ear: 98%

## COc1ccc(C2CNC(=O)C2)cc1OC1CCCC1 (stereo not drawn) [Rolipram, reference compound]
[1]; at 12.5 μM, positive control
  inhibition at 12.5 µM: 85%
Naive CD4+ T-cells; all T-cell populations, control phosphodiesterase IV inhibitor
  inhibition of T-cell populations: uniformly inhibitory

## COc1cc(CC2C[C@@H](c3ccc(OC)c(OC4CCCC4)c3)COC2=O)ccc1O (stereo partly drawn) [Compound 43]
[2]
  inhibition in vivo at 100 mg/kg: 72%
  inhibition in vivo at 10 mg/kg: 45%
  inhibition in vivo at 50 µg/ear: 98%
PDE 1 (bovine heart); [4]
  inhibition at 100 µM: 50 to 75%
PDE 2 (human platelets); read-out: % inhibition by 100 μM test compound 50-75
  inhibition at 100 µM: 50 to 75%
PDE 5 (human platelets)
  inhibition at 100 µM: 1 to 25%
Naive CD4+ T-cells; Mus musculus, T-cell, @5 μM
  inhibition at 5 µM: > 70%

## COc1cc(CC2C[C@@H](c3ccc(OC)c(OC4CCCC4)c3)CNC2=O)ccc1O (stereo partly drawn) [Compound 62]
[2]
  inhibition in vivo at 10 mg/kg: 30%

## COc1cc(C[C@@H]2CC(c3ccc(OC)c(OC)c3)COC2=O)ccc1O (mixture of isomers) [Compound 12]
[1]
  IC50: 10 to 100 µM
[2]
  inhibition in vivo at 100 mg/kg: 61%
  inhibition in vivo at 50 µg/ear: 85%
PDE 1 (bovine heart); [4]
  inhibition at 100 µM: 50 to 75%
PDE 2 (human platelets); human platelets
  inhibitory effect on PDE 2: no significant inhibitory effects
PDE 2 (human platelets); [3]
  inhibition at 100 µM: 25 to 50%
PDE 5 (human platelets); human platelets, cGMP substrate
  inhibitory effect on PDE 5: no significant inhibitory effects
PDE 5 (human platelets)
  inhibition at 100 µM: 1 to 25%
